Laboratory results as given in US4080471A, “Use of substituted isopropylaminopropanols for inducing inotropic effects of the human heart” (priority 1976, dated 1978).
“Also recorded” adds a separate entry of the source.

Experiments:
[1] = biological target: T1, beta-receptors of the heart (Felis catus, UniProt Q9TST6); test: Beta-adrenergic (chronotropic, heart frequency) effects on anesthetized cat pretreated with reserpine; assay type: in vivo
T1 construct: Heart frequency was registered with a cardiotachometer triggered by the ECG; from tissue; host or cells: heart of the anaesthetized cat in vivo (reserpine-pretreated, vagotomized)
Protocol: (§1) Chronotropic (heart frequency) and vasodilatating effects:
(§2) When the cats had been anaesthetized with Mebumal® 30 mg/kg bodyweight i.p., an artificial air respiration was started. The two vagus nerves were cut and the blood passing through a femoral artery was fed via a catheter and a pump back to the distal part of the vessel. Parallelly, a pressure transducer was connected by which the perfusion pressure was registered. At a perfusion with a constant flow, the perfusion pressure is directly proportional to the peripheral resistance of the vascular bed of the hind limb. Blood circulation in the foot was interrupted with a ligature. Heart frequency was registered with a cardiotachometer triggered by the ECG. The substances were administered intravenously in increasing doses and the dose-response curves of the heart frequency and the vasodilatation were constructed.
(§3) Further, the dose ratios (ED50 for vasodilatation/ED50 for heart frequency) are calculated. A dose ratio >1 indicates a heart selective effect.

[2] = system: beta-receptors of the heart; test: as above; assay type: in vivo; settings: dose ratio >1 indicates a heart selective effect
Protocol: as §1, §2, §3

[3] = biological target: T2, beta-receptors of the blood vessels (Felis catus, UniProt Q9TST5); test: Vasodilatating effect (hind limb perfusion pressure) on anesthetized cat pretreated with reserpine; assay type: in vivo; settings: cat, iv, read-out: ED50 Vasodilation
T2 construct: from tissue; host or cells: hind-limb vascular bed of the anaesthetized cat in vivo (constant-flow perfusion, reserpine-pretreated)
Protocol: as §1, §2, §3

[4] = system: heart; test: Effect on heart chronotropy and inotropy of a conscious dog
Source text: During anesthesia a catheter was introduced in the aorta, an electromagnetic flow probe was placed around the ascending aorta, and induction coils were placed diametrically on the inside of the left ventricle. The experiments were started about 2 weeks after the incision, when the dog had recovered completely.
When the dog was resting, the arterial blood pressure, the flow in the aorta, the maximum flow acceleration in the aorta (maximum dF/dt), heart frequency, the diameter of the left ventricle, and ECG were registered. The effects of compounds I and II were registered at 10, 20, and 30 minutes after administration. […] The compounds were given intravenously in the following doses. […] In order to eliminate vagal influence on the heart the dog was pretreated with methyl scopolamine 0.012 mg/kg bodyweight intramuscularily 20 minutes before the administration of the compounds. From the data giving the diameter of the left ventricle, the end diastolic volume was calculated according to E. W. Hawthorne. Mean ejection rate (ml/sec.) was calculated by dividing the stroke volume with the ejection time. […] The values given are the percentage changes after administration when the heart frequency has increased 10 beats per minute, values interpolated. […] In order to compare the inotropic effects of ouabain with those of the other compounds, the heart was stimulated in these experiments by electric pacing to a frequency which was 10 beats/minute above that registered before administration.
In order to investigate the absorption and duration of the effect, compounds I and II were given orally in an amount of 100 μg/kg bodyweight.

[5] = change i.v. at heart frequency +10 beats/min, interpolated, ouabain 30 μg/kg i.v., paced

T1 sequence (Q9TST6 whole entry): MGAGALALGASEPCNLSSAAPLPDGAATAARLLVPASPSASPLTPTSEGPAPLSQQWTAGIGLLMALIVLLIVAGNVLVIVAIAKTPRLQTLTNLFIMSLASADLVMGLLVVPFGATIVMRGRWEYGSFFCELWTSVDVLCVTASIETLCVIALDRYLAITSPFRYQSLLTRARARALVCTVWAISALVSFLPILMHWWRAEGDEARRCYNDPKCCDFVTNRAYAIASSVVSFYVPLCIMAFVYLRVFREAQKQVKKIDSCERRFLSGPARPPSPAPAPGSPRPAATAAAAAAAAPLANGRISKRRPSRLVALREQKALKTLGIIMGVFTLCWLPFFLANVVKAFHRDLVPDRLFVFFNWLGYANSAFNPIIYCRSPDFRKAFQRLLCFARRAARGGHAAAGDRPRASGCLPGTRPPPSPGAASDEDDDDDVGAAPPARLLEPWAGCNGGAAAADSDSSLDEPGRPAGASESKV
T2 sequence (Q9TST5 whole entry, the tested form may be a part): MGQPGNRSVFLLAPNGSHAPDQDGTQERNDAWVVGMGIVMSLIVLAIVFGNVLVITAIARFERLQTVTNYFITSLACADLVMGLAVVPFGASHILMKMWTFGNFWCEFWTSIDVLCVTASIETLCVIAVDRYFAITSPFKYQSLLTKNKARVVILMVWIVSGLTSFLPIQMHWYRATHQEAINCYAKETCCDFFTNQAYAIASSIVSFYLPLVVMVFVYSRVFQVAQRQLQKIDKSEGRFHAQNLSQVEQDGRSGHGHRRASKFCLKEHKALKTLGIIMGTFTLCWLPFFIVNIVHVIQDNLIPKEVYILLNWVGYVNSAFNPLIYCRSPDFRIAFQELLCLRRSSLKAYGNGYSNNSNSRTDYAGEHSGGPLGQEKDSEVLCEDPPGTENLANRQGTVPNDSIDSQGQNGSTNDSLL

CC(C)NCC(O)COc1ccc(O)cc1 (stereo not drawn) [Compound I, 1-isopropylamino-3-(p-hydroxyphenoxy)-propanol-2]
ED50 ([1]; cat, iv, read-out: ED50 Heart Frequency): 6 µg/kg
potency relative to isoprenaline, chronotropic effect ([1]; isoprenaline = 1, cat i.v.): about 1/100
Selectivity: ED50 Vasodilatation / ED50 Heart Frequency [2]: > 100
ED50 [3]: > 1000 µg/kg
time of maximum effect, oral ([4]; 100 μg/kg bodyweight orally): 30 min
Enddiastolic volume ([4]; change i.v. at heart frequency +10 beats/min, interpolated, calculated from left ventricle diameter, ouabain 30 μg/kg i.v., paced): -9%
Stroke volume ([4]; change i.v. at heart frequency +10 beats/min, interpolated, methyl scopolamine pretreated, ouabain 30 μg/kg i.v., paced): 5%
Mean arterial blood pressure [4, 5]: 0 mm Hg
Peak aortic flow [4, 5]: 22%
Mean ejection rate ([4]; change i.v. at heart frequency +10 beats/min, interpolated, stroke volume / ejection time, ouabain 30 μg/kg i.v., paced): 13%
side effects ([4]; conscious dog, I and II 10 and 20 μg/kg, ouabain 30 μg/kg i.v.): No side effect was observed
contractility / inotropic effect in conscious dog (in words) ([4]; i.v.): clear inotropic effect without any significant increase of the heart frequency; also recorded: increases the contractility of the left ventricle
Max. dF/dt ([4]; maximum flow acceleration in aorta, change i.v. at heart frequency +10 beats/min, interpolated, ouabain 30 μg/kg i.v., paced): 43%
oral effect (in words) ([4]; oral, 100 μg/kg bodyweight): good inotropic effect when administered perorally and an acceptable duration of action; also recorded: comparable with those obtained after intravenous administration of 20 μg/kg bodyweight
positive inotropic effect compared with ouabain (in words) ([4]; versus relatively high dose of ouabain): quite comparable to the effect of a high dose of ouabain; also recorded: comparable to the effect of the relatively high dose of ouabain
